Experimental findings from patent publication US20260138978A1, “POSITIVE ALLOSTERIC MODULATORS OF THE MUSCARINIC ACETYLCHOLINE RECEPTOR M1” (Vanderbilt University, priority 2022, published 2026) are described below.

In assay [1] the target is T1, human mAChRM1 (Homo sapiens, UniProt P11229).
T1 construct: host or cells: CHO-K1
T1 sequence (P11229 1-460): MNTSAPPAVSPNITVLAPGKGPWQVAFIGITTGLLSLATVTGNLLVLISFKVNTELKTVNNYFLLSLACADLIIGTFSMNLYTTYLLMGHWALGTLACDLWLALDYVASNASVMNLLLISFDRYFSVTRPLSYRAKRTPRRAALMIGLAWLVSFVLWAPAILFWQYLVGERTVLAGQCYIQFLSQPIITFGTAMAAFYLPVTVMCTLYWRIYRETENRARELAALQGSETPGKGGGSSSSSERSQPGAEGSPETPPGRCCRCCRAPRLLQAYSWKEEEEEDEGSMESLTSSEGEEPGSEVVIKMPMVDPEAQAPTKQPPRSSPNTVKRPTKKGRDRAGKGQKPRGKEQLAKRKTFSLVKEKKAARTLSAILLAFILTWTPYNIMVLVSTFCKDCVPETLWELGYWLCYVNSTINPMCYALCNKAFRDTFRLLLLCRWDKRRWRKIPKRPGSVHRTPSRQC
The experiment in a line: mAChR M1 cell-based functional assay (calcium mobilization), agonist activity upon compound addition, Emax relative to acetylcholine maximum. The conditions noted are these: for EC50 / Agonist Activity Human M1 EC50: calcium mobilization upon compound addition; for Emax: relative to the maximum for acetylcholine. In a few lines:
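Emax is given as a percentage of the maximal acetylcholine response, from four-parameter curves of compound-evoked calcium mobilization. Human M1-transfected CHO-K1 cells carried Fluo-4 dye, and compound (11 concentrations, 1:3 steps) was applied at 4 s of a 300 s kinetic fluorescence recording.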

Assay [2] addresses T1, human mAChRM1. The experiment in a line: mAChR M1 cell-based functional assay (calcium mobilization), positive allosteric modulator activity: increase in the EC20 acetylcholine response. The note with it: for Emax: PAM mode; for EC50: read-out: PAM Activity Human M1 EC50. In a few lines:
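Potentiation is scored as the rise in an EC20 acetylcholine-evoked calcium signal across 11-point (1:3) compound series, fitted with a four-parameter logistic equation to give EC50 and Emax. Read-out is Fluo-4 fluorescence ratio in hM1-transfected CHO-K1 cells, measured kinetically on FDSS.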

[3] abbreviates: increase in the EC20 acetylcholine response.

For the molecule `Cn1cc2c(-c3cc(F)c(CN4Cc5nccnc5C4=O)c(F)c3)ccc(C(C)(C)O)c2n1` [Compound 138, 6-(2,6-Difluoro-4-(7-(2-hydroxypropan-2-yl)-2-methyl-2H-indazol-4-yl)benzyl)-6,7-dihydro-5H-pyrrolo[3,4-b]pyrazin-5-one], the values for the EC50 at human mAChRM1 [1] and at human mAChRM1 [2] (setting [3]) were no less than 10000 nM and 281 nM, respectively. In addition, the Emax was 17% on human mAChRM1 [1] and 67% at human mAChRM1 [2].

Turning to `Cc1cc(-c2ccc(C(C)(C)O)c3ncccc23)cc(F)c1CN1Cc2ncccc2C1=O` [Compound 53, 6-(2-fluoro-4-(8-(2-hydroxypropan-2-yl)quinolin-5-yl)-6-methylbenzyl)-6,7-dihydro-5H-pyrrolo[3,4-b]pyridin-5-one], the “Agonist Activity Human M1 EC50” value at human mAChRM1 [1] was “inactive”. For the same molecule, on human mAChRM1 [2], the Emax came out at 53%. The 50% effective concentration (EC50) on human mAChRM1 [2] (setting [3]) stood at 5870 nM.

With `Cn1cc2c(-c3cc(F)c(CN4Cc5ncccc5C4=O)c(F)c3)ccc(C3(O)CCOCC3)c2n1` [Compound 92, 6-(2,6-difluoro-4-(7-(4-hydroxytetrahydro-2H-pyran-4-yl)-2-methyl-2H-indazol-4-yl)benzyl)-6,7-dihydro-5H-pyrrolo[3,4-b]pyridin-5-one], the results for the concentration for a half-maximal effect (EC50) on human mAChRM1 [1] and at human mAChRM1 [2] (setting [3]) were 1400 nM and 76 nM, respectively. The maximal effect (Emax) at human mAChRM1 [1] came to 22%; on human mAChRM1 [2], 81%.

As for `Cc1cc(-c2ccc(C(C)(C)O)cc2)ccc1CN1Cc2cccnc2C1=O` [Compound 129, 6-((4′-(2-hydroxypropan-2-yl)-3-methyl-[1,1′-biphenyl]-4-yl)methyl)-5,6-dihydro-7H-pyrrolo[3,4-b]pyridin-7-one], on human mAChRM1 [1], the “Agonist Activity Human M1 EC50” value was “inactive”. Also, the maximal response (Emax) on human mAChRM1 [2] was determined as 65%. Moreover, the concentration giving a half-maximal response (EC50) at human mAChRM1 [2] (setting [3]) was no less than 10000 nM.

With `COCCOc1cc(-c2ccc(C(C)(C)O)c3nn(C)cc23)cc(F)c1CN1Cc2cccnc2C1=O` [Compound 126, 6-(2-fluoro-4-(7-(2-hydroxypropan-2-yl)-2-methyl-2H-indazol-4-yl)-6-(2-methoxyethoxy)benzyl)-5,6-dihydro-7H-pyrrolo[3,4-b]pyridin-7-one], the EC50 was 3730 nM on human mAChRM1 [1] and 61 nM at human mAChRM1 [2] (setting [3]). Besides, the Emax at human mAChRM1 [1] was determined as 54%; on human mAChRM1 [2], 83%.

As for `Cn1cc2cc(-c3ccc(CN4Cc5ncccc5C4=O)cc3)cc(C(C)(C)O)c2n1` [Compound 36, 6-(4-(7-(2-hydroxypropan-2-yl)-2-methyl-2H-indazol-5-yl)benzyl)-6,7-dihydro-5H-pyrrolo[3,4-b]pyridin-5-one], the “Agonist Activity Human M1 EC50” value at human mAChRM1 [1] was “inactive”. Also, at human mAChRM1 [2], the Emax was 67%. Besides, the 50% effective concentration (EC50) on human mAChRM1 [2] (setting [3]) stood at 962 nM.

For `Cn1cc2c(-c3cc(F)c(CN4Cc5ccncc5C4=O)c(F)c3)ccc(C(C)(C)O)c2n1` [Compound 140, 2-(2,6-difluoro-4-(7-(2-hydroxypropan-2-yl)-2-methyl-2H-indazol-4-yl)benzyl)-1,2-dihydro-3H-pyrrolo[3,4-c]pyridin-3-one], the EC50 at human mAChRM1 [1] stood at 5640 nM; at human mAChRM1 [2] (setting [3]), 84 nM. The Emax amounted to 41% at human mAChRM1 [1] and 76% on human mAChRM1 [2].

As for `Cn1cc2c(-c3cc(F)c(CN4Cc5ncccc5C4=O)c(F)c3)ccc(C3(O)CC(F)(F)C3)c2n1` [Compound 105, 6-(4-(7-(3,3-difluoro-1-hydroxycyclobutyl)-2-methyl-2H-indazol-4-yl)-2,6-difluorobenzyl)-6,7-dihydro-5H-pyrrolo[3,4-b]pyridin-5-one], the EC50 is greater than 10000 nM on human mAChRM1 [1] and 780 nM at human mAChRM1 [2] (setting [3]). The maximal effect (Emax) was 15% on human mAChRM1 [1] and 72% on human mAChRM1 [2].

Regarding `Cn1cc2c(-c3cc(F)c(CN4Cc5cccnc5C4=O)c(Cl)c3)ccc(C(C)(C)O)c2n1` [Compound 122, 6-(2-Chloro-6-fluoro-4-(7-(2-hydroxypropan-2-yl)-2-methyl-2H-indazol-4-yl)benzyl)-5,6-dihydro-7H-pyrrolo[3,4-b]pyridin-7-one], the EC50 at human mAChRM1 [1] is no less than 10000 nM; at human mAChRM1 [2] (setting [3]), 231 nM. In addition, the maximum response (Emax) was determined as 20% at human mAChRM1 [1] and 86% at human mAChRM1 [2].

As to `Cc1cc(-c2cn(C)nc2C(C)(C)O)cc(F)c1CN1Cc2ncccc2C1=O` [Compound 30, 6-(2-fluoro-4-(3-(2-hydroxypropan-2-yl)-1-methyl-1H-pyrazol-4-yl)-6-methylbenzyl)-6,7-dihydro-5H-pyrrolo[3,4-b]pyridin-5-one], on human mAChRM1 [1], the “Agonist Activity Human M1 EC50” value is “inactive”. The maximal effect (Emax) on human mAChRM1 [2] turned out to be 51%. The EC50 at human mAChRM1 [2] (setting [3]) is no less than 10000 nM.

As for `Cn1cc2c(-c3cc(F)c(CN4Cc5cccnc5C4=O)c(C4CCCC4)c3)ccc(C(C)(C)O)c2n1` [Compound 136, 6-(2-cyclopentyl-6-fluoro-4-(7-(2-hydroxypropan-2-yl)-2-methyl-2H-indazol-4-yl)benzyl)-5,6-dihydro-7H-pyrrolo[3,4-b]pyridin-7-one], the EC50 on human mAChRM1 [1] was 9680 nM; at human mAChRM1 [2] (setting [3]), 648 nM. Moreover, the Emax at human mAChRM1 [1] was determined as 21%; on human mAChRM1 [2] it was 86%.

Take `[2H]C1([2H])c2ncccc2C(=O)N1Cc1c(F)cc(-c2ccc(C(C)(C)O)c3nn(C)cc23)cc1C1CC1` (single isomer, unassigned) [Compound 143, 6-(2-cyclopropyl-6-fluoro-4-(7-(2-hydroxypropan-2-yl)-2-methyl-2H-indazol-4-yl)benzyl)-6,7-dihydro-5H-pyrrolo[3,4-b]pyridin-5-one-7,7-d2]: the figures for the half-maximal effective concentration (EC50) at human mAChRM1 [1] and at human mAChRM1 [2] (setting [3]) were 5300 nM and 96 nM, respectively. Also, the Emax on human mAChRM1 [1] turned out to be 68%; on human mAChRM1 [2], 83%.

Regarding `CC(C)(O)c1cc2cc(-c3cc(F)c(CN4Cc5ncccc5C4=O)c(F)c3)ccn2n1` [Compound 108, 6-(2,6-difluoro-4-(2-(2-hydroxypropan-2-yl)pyrazolo[1,5-a]pyridin-5-yl)benzyl)-6,7-dihydro-5H-pyrrolo[3,4-b]pyridin-5-one], at human mAChRM1 [1], the “Agonist Activity Human M1 EC50” value is “inactive”. For the same molecule, the Emax at human mAChRM1 [2] is 70%. In addition, at human mAChRM1 [2] (setting [3]), the half-maximal effective concentration (EC50) is 1800 nM.

As for `Cn1cc2c(-c3cc(F)c(CN4Cc5ncccc5C4=O)c(F)c3)ccc(C(C)(C)O)c2n1` [Compound 1, 6-(2,6-difluoro-4-(7-(2-hydroxypropan-2-yl)-2-methyl-2H-indazol-4-yl)benzyl)-6,7-dihydro-5H-pyrrolo[3,4-b]pyridin-5-one], the EC50 was 2740 nM on human mAChRM1 [1] and 59 nM at human mAChRM1 [2] (setting [3]). Moreover, the figures for the maximal response (Emax) on human mAChRM1 [1] and at human mAChRM1 [2] were 22% and 78%, respectively.

Consider `Cc1cc(-c2cc(C(C)(C)O)c3cn(C)nc3c2)ccc1CN1Cc2ncccc2C1=O` [Compound 22, 6-(4-(4-(2-hydroxypropan-2-yl)-2-methyl-2H-indazol-6-yl)-2-methylbenzyl)-6,7-dihydro-5H-pyrrolo[3,4-b]pyridin-5-one], for which the “Agonist Activity Human M1 EC50” value on human mAChRM1 [1] is “inactive”. Besides, the “PAM Activity Human M1 EC50” value at human mAChRM1 [2] (setting [3]) was “inactive”.

Turning to `[2H]C1([2H])c2ncccc2C(=O)N1Cc1c(F)cc(-c2ccc(C(C)(C)O)c3nn(C)cc23)cc1F` [Compound 142, 6-(2,6-Difluoro-4-(7-(2-hydroxypropan-2-yl)-2-methyl-2H-indazol-4-yl)benzyl)-6,7-dihydro-5H-pyrrolo[3,4-b]pyridin-5-one-7,7-d2], the EC50 came out at 4020 nM at human mAChRM1 [1] and 119 nM at human mAChRM1 [2] (setting [3]). Besides, the Emax on human mAChRM1 [1] was found to be 31%; at human mAChRM1 [2], 87%.
